Values quoted from earlier work, collected in article PMC4059071 (Angewandte Chemie (International ed. in English), 2013).

Test system: Akt
Conditions: ref [13]

Cc1n[nH]c2ccc(-c3cncc(OC[C@@H](N)Cc4c[nH]c5ccccc45)c3)cc12 [A-443654]
effect on Akt phosphorylation (Thr308 and Ser473 of Akt): paradoxical hyperphosphorylation of Akt at both Thr308 and Ser473
effect on Akt protein activity after inhibitor dissociation: protein reactivation after inhibitor dissociation
